Where a SMILES comes first, the peptide text is derived from it.
How the values were obtained:
Mu-type opioid receptor [1] = target: Mu-type opioid receptor (Cavia porcellus, UniProt P97266); assay: Agonistic activity at mu opioid receptor in guinea pig ileum assessed as inhibition of electrically evoked twitch; assay type: functional, tissue-based
[2] = target: Opioid receptors; mu & delta (Rattus norvegicus) (UniProt P33533+P33535); assay: Selectivity of rat brain delta opioid receptor over rat brain mu opioid receptor
[3] = target: Delta-type opioid receptor (Mus musculus) (UniProt P32300); assay: Antagonist activity at delta opioid receptor in mouse vas deferens assessed as effect on electrically evoked twitch; assay type: functional, tissue-based; settings: filed as antagonist
[4] = target: Delta-type opioid receptor (Mus musculus, UniProt P32300); assay: Agonistic activity at delta opioid receptor in mouse vas deferens assessed as inhibition of electrically evoked twitch; assay type: functional, tissue-based
[5] = target: Delta-type opioid receptor (Rattus norvegicus, UniProt P33533); assay: Displacement of [3H]DPDPE from delta opioid receptor in rat brain synaptosomes P2 fraction; assay type: subcellular
Mu-type opioid receptor [6] = target: Mu-type opioid receptor (Rattus norvegicus, UniProt P33535); assay: Displacement of [3H]DAMGO from mu opioid receptor in rat brain synaptosomes P2 fraction; assay type: subcellular
Sequence of Mu-type opioid receptor (Rattus norvegicus, UniProt P33535) (P33535 whole entry): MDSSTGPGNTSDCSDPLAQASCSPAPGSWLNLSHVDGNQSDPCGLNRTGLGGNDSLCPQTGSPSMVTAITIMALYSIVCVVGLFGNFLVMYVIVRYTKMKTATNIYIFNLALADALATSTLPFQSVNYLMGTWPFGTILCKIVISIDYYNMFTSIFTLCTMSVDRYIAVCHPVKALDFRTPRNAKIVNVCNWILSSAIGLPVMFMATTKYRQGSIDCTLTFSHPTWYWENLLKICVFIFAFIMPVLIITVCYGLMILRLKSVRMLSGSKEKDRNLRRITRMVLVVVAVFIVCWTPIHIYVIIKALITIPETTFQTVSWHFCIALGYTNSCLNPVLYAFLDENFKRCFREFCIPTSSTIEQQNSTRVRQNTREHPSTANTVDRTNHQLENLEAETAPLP

Sequence of Opioid receptors; mu & delta (Rattus norvegicus) (P33533 whole entry, looked up): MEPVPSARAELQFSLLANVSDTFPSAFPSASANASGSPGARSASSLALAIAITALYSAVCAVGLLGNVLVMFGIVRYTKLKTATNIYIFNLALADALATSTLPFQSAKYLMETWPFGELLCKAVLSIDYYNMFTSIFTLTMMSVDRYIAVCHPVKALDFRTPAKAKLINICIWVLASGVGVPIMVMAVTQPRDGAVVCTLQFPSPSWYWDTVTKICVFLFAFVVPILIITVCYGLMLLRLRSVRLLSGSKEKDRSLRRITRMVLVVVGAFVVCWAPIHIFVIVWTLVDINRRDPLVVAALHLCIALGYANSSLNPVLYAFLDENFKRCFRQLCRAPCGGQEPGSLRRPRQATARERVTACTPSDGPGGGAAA
Sequence of Opioid receptors; mu & delta (Rattus norvegicus) (P33535 whole entry, looked up): as the sequence (P33535 whole entry) above
Sequence of Mu-type opioid receptor (Cavia porcellus, UniProt P97266) (P97266 whole entry): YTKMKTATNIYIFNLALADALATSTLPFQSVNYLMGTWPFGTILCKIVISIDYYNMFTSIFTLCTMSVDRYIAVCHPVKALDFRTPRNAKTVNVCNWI
Sequence of Delta-type opioid receptor (Mus musculus) (P32300 whole entry): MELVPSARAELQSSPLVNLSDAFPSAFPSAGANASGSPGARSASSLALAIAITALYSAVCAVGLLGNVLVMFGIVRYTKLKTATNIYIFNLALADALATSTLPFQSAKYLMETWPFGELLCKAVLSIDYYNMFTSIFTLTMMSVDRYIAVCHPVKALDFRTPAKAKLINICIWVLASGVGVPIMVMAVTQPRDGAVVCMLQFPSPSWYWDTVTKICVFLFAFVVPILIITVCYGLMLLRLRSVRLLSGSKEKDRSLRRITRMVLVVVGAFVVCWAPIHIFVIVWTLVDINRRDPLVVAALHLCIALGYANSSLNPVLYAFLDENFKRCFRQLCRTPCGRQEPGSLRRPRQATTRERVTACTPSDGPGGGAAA
Sequence of Delta-type opioid receptor (Mus musculus, UniProt P32300) (P32300 whole entry): as above
Sequence of Delta-type opioid receptor (Rattus norvegicus, UniProt P33533) (P33533 whole entry): as the sequence (P33533 whole entry, looked up) above

| Compound | IC50 (Mu-type opioid receptor [1]) [nM] | Ratio Ki [2] | other results |
| --- | --- | --- | --- |
| Cc1cc(O)cc(C)c1C[C@H](N)C(=O)N1Cc2ccccc2C[C@H]1C(=O)N[C@@H](CCC(=O)O)C(=O)NCCCCCN | > 1000 | – | – |
| Cc1cc(O)cc(C)c1C[C@H](N)C(=O)N1Cc2ccccc2C[C@H]1C(=O)N[C@@H](CCC(=O)O)C(=O)NCCCCCNC(=S)Nc1ccc(-c2c3ccc(=O)cc-3oc3cc(O)ccc23)c(C(=O)O)c1 | > 1000 | – | – |
| Cc1cc(O)cc(C)c1C[C@H](N)C(=O)N1Cc2ccccc2CC1C(=O)N[C@@H](CCC(=O)O)C(=O)NCCCCCN (stereo not given in full) | – | 1700 | – |
| Cc1cc(O)cc(C)c1C[C@H](N)C(=O)N1Cc2ccccc2CC1C(=O)N[C@@H](CCC(=O)O)C(=O)NCCCCCNC(=S)Nc1ccc(-c2c3ccc(=O)cc-3oc3cc(O)ccc23)c(C(=O)O)c1 (stereo not given in full) | – | 4370 | Activity [3]: Irreversible Antagonist |
| Cc1cc(O)cc(C)c1C[C@H](N)C(=O)N1Cc2ccccc2C[C@H]1C(=O)N[C@@H](CCC(=O)O)C(N)=O (HELM PEPTIDE1{[Cc1cc(O)cc(C)c1C[C@H](N)C(=O)[*:2]].[Tic].E.[am]}$$$$V2.0) | > 1000 | 22600 | IC50 [4]: 2.58 nM (agonist); Ki [5]: 0.06 nM (antagonist); Ki (Mu-type opioid receptor [6]): 1360 nM (antagonist) |

From ChEMBL document CHEMBL1149280, “Highly selective fluorescent analogue of the potent delta-opioid receptor antagonist Dmt-Tic” (J Med Chem, 2004)
